In the test the target is T1, human cathepsin S (hCatS) (Homo sapiens, UniProt P25774).
T1 construct: gene CTSS
Description: fluorogenic enzyme inhibition assay, Cbz-Val-Val-Arg-AMC substrate; Ki from IC50. Type of test: biochemical.

T1 sequence (P25774 115-331): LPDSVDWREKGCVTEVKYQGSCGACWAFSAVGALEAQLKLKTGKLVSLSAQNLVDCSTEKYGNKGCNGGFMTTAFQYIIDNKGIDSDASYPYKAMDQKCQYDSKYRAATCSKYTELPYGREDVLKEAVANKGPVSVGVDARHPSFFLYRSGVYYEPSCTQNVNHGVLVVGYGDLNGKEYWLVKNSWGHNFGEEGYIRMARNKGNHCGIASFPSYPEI

What is called Ki is the dissociation constant of the complex between target and ligand, obtained from inhibition or displacement. Higher therefore signals lower affinity. On to `CCCC[C@H](NC(=O)OCc1ccccc1)C(=O)N[C@H](/C=C/C(C)=O)C[C@@H]1CCNC1=O` [SPR38], for which the Ki came out at 58.8 ± 3.6 nM.

`CC(=O)/C=C/[C@H](C[C@@H]1CCNC1=O)NC(=O)[C@H](CC1CC1)NC(=O)OCc1ccccc1` [SPR39] showed a Ki of 45.1 ± 3.8 nM.

`CC(=O)/C=C/[C@H](C[C@@H]1CCNC1=O)NC(=O)[C@H](CC1CCCCC1)NC(=O)OCc1ccccc1` [SPR41] gave a Ki of 10.7 ± 1.1 nM.

(Values after publication PMC12566624, “A Second Opportunity for the Peptide-Based Analogues with γ-Lactam at the P1 Position: Human Cathepsin S Inhibition” (Pharmaceuticals, 2025).)
